Results published in patent publication EP0244062A2, “Use of aryl ethanol amine derivatives in the treatment of atherosclerosis” (BEECHAM GROUP PLC, priority 1986, dated 1987).

What was measured:
[1] = test system: hypercholesterolaemic mice; assay: Cholesterol reduction in hypercholesterolaemic mice on a high cholesterol-cholic acid diet (Example 4); assay type: in vivo; settings: oral; for % Reduction LDL + VLDL cholesterol: heparin precipitation
Description: Compound P2 provided the following results with hypercholesterolaemic mice: Mice were made hypercholesterolaemic by being fed on a high cholesterol-cholic acid diet for seven days and were dosed orally on the sixth and seventh days. Low density and very low density lipoprotein (LDL and VLDL) cholesterol were measured together by heparin precipitation.

[2] = test system: Male rats; assay: Serum lipids in rats given the compound in the diet for 7 days (Example 5); assay type: in vivo; settings: 0.1 g of the compound per kg of diet for 7 days, mean of 8 ± S.E.
From the text: Compound P3 provided the following results with rats: Male rats were fed on a normal diet or on a diet that contained O.lg of the compound per kg of diet for 7 days. Results are means of 8 values ± S.E.

[3] = test system: Obese subjects; assay: Clinical first study: obese subjects on a low energy liquid formula diet, six weeks (Example 6); assay type: in vivo, human; settings: 50 mg pfb, qds for six weeks, fasted
Description: Clinical studies using compound P3: First study Obese subjects (at least 20% above ideal weight) were given a low energy liquid formula diet and treated with the compound (50 mg pfb, qds) or placebo for six weeks. Serum triglyceride and cholesterol were measured in the fasted state just prior to the first dose and on the morning after the last dose of compound or placebo. Results are means ± S.E. with the number of subjects in parenthesis.

[4] = test system: Obese subjects; assay: Clinical second study: crossover in obese subjects on a low energy high fibre diet, 2 x six weeks (Example 6); assay type: in vivo, human; settings: 50 mg pfb qds first week, then 100 mg qds, fasted
Description: Clinical studies using compound P3: Second study Obese subjects (at least 20X above ideal weight) were given a low energy high fibre diet and treated with the compound or placebo for six weeks after which they were given the alternative treatment for a further six weeks. For the first week of treatment (weeks 1 or 7) the dose level was 50 mg pfb, qds and after this it was 100 mg qds. Serum lipids were measured in the fasted state just prior to the first dose and after each six week period of dosing. Results are means ± S.E. with the number of subjects in parentheses.

[5] = test system: Zucker fa/fa male rats; assay: Plasma lipids in Zucker fa/fa rats dosed once daily for 39 days (Example 7); assay type: in vivo; settings: 7.8µmol/kg once daily for 39 days, mean of 8 ± S.E.M.
Description: Zucker fa/fa male rats of about 550g were dosed once daily with either water or Compound P3 (7.8µmol/kg) for 39 days. Results are means of 8 values ± S.E.M.

[6] = test system: normal mice; assay: Serum lipids in normal mice dosed daily for 28 days (Example 1); assay type: in vivo; settings: normal female CFLP mice, mean of 8 ± S.E.; for Serum triglyceride: untreated 40.0±3.2, P < 0.001; for Serum cholesterol: untreated 67.6±2.4
Description: Compound P1 provided the following results with normal mice: Normal female CFLP mice were dosed daily at 11.00h for 28 days. One group was also dosed at 17.00h daily. 0n the day after dosing terminated they were killed at 14.00h. Results are means of 8 values ± S.E.

[7] = test system: Goldthioglucose-induced obese mice; assay: Serum lipids in goldthioglucose-induced obese mice (Example 2); assay type: in vivo; settings: goldthioglucose-induced obese female CFLP mice, 20 mg/kg p.o. once daily for 28 days, mean of 4 ± S.E.
Description: Compound Pl provided the following results with Goldthioglucose-induced obese mice: . Female CFLP mice were given goldthioglucose (0.85 mg/g body wt., i.p.) and after 17 weeks the obese mice (mean wt. 57g) were selected and randomized into two groups of 4. The compound (20 mg/kg, p.o.) or water was given once daily for 28 days and the mice were killed the day after the last dose. Results are means of 4 values ± S.E.

[8] = test system: High fat diet-induced obese mice; assay: Serum lipids in high fat diet-induced obese mice (Example 3); assay type: in vivo; settings: high fat diet-induced obese female CFLP mice, 20 mg/kg p.o. once daily for 28 days, mean ± S.E. (n=12)
Description: Compound Pl provided the following results with High fat diet-induced obese mice: Female CFLP mice were fed on a high protein, high fat diet. After 13 weeks the obese mice (mean wt. 49g) were selected and randomized into groups of 12. The compound (20 mg/kg, p.o.) or water was given once daily for 28 days and the mice were killed the day after the last dose. Results are means ± S.E, with numbers of determinations in parentheses.

[9] = total dose on days 6 and 7 5 mg/kg
[10] = total dose on days 6 and 7 10 mg/kg
[11] = total dose on days 6 and 7 25 mg/kg
[12] = 2.5 mg/kg body wt. p.o. daily for 28 days
[13] = 2.5 mg/kg body wt. p.o. twice daily for 28 days
[14] = 5 mg/kg body wt. p.o. daily for 28 days
[15] = 10 mg/kg body wt. p.o. daily for 28 days
[16] = 15 mg/kg body wt. p.o. daily for 28 days

COC(=O)COc1ccc(C[C@@H](C)NC[C@H](O)c2cccc(Cl)c2)cc1 (racemic) [Compound P2, N-(2-(4-carbomethoxymethoxyphenyl)-1-methylethyl)--2-hydroxy-2-(3-chlorophenyl)ethanamine nydrobromide]
% Reduction Total cholesterol [1, 9]: 24%
% Reduction LDL + VLDL cholesterol [1, 9]: 29%
% Reduction Total cholesterol [1, 10]: 22%
% Reduction LDL + VLDL cholesterol [1, 10]: 28%
% Reduction Total cholesterol [1, 11]: 34%
% Reduction LDL + VLDL cholesterol [1, 11]: 55%

COC(=O)c1ccc(C[C@@H](C)NC[C@H](O)c2ccccc2)cc1 (racemic) [Compound P3, N-[2-(4-carbomethoxyphenyl)-1-methylethyl]-2-hydroxy-2-phenylethanamine hemifumarate]
Serum cholesterol ([2]; control 52±2): 54±3 mg/100ml
Serum triglyceride ([2]; control 112±10, P < 0.05): 70±4 mg/100ml
Serum triglyceride % Fall ([3]; initial 2.05±0.16 mM (4), subjects with initial levels below 1 mM excluded, placebo 21±7): 52±6%
Serum cholesterol % Fall ([3]; initial 5.81±0.44 mM (5), placebo 19±5): 21±7%
HDL cholesterol % change ([4]; 1st 6 weeks, initial 1.50±0.07 mM (15), placebo -10±3): 0±4%
Serum triglyceride % change ([4]; 1st 6 weeks, initial 1.57±0.18 mM (15), placebo -12±5): -25±5%
Serum cholesterol % change ([4]; 1st 6 weeks, initial 6.10±0.24 mM (15), placebo -13±3): -9±3%
Serum triglyceride % change ([4]; 2nd 6 weeks (after crossover), initial 1.21±0.18 mM (15), placebo +33±10): -4±8%
HDL cholesterol % change ([4]; 2nd 6 weeks (after crossover), initial 1.30±0.04 mM (15), placebo -5±4): +14±3%
Serum cholesterol % change ([4]; 2nd 6 weeks (after crossover), initial 5.30±0.29 mM (15), placebo +4±3): +5±3%
Plasma Cholesterol ([5]; water 3.44 ± 0.10, p < 0.05): 3.07 ± 0.14 mM
Plasma Triglyceride ([5]; water 9.3 ± 0.7, p < 0.02): 5.9 ± 0.9 mM

COC(=O)c1ccc(CC(C)NCC(O)c2ccc(O)c(CO)c2)cc1 (centres unmarked) [Compound P1, N-(2-(4-carbomethoxghenyl)-1-metnylethyl) -2-hydroxy-2-(4-hydroxy-3-hydroxymethylphenyl) ethanamine]
Serum triglyceride [6, 12]: 21.5±1.1 mg/100 ml
Serum cholesterol [6, 12]: 67.0±3.2 mg/100 ml
Serum triglyceride [6, 13]: 16.4±0.8 mg/100 ml
Serum cholesterol [6, 13]: 74.4±1.7 mg/100 ml
Serum triglyceride [6, 14]: 16.3±1.1 mg/100 ml
Serum cholesterol [6, 14]: 69.1±2.4 mg/100 ml
Serum triglyceride [6, 15]: 14.5±0.7 mg/100 ml
Serum cholesterol [6, 15]: 68.4±3.3 mg/100 ml
Serum triglyceride [6, 16]: 14.3±0.8 mg/100 ml
Serum cholesterol [6, 16]: 71.0±2.4 mg/100 ml
Serum triglyceride ([7]; control 35±4, P < 0.05): 22±3 mg/100 ml
Serum cholesterol ([7]; control 82±4): 81±6 mg/100 ml
Serum triglyceride ([8]; control 73±8, P < 0.01): 34±2**(12) mg/100ml
Serum cholesterol ([8]; control 118±3, P < 0.05): 103±5*(12) mg/100ml
